From patent publication US11440923B2, “Substituted macrocyclic indole derivatives” (Bayer Aktiengesellschaft, priority 2017, dated 2022)
Counter-ions that a name gives are not always drawn. Like-named read-outs stand apart in the source and are kept apart here.

Legend:
BCL-XL = BCL-XL (Homo sapiens (Human), UniProt Q07817); test: Protein-protein interaction assay BCL-XL/Bad BH3 peptide (BCL-XL assay, TR-FRET); type: binding; conditions: read-out: BCL-XL Assay IC50 (median)
Outline: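 Human BCL-XL (aa 1-212, C-terminal His6, E. coli) at 1 nM end concentration, preincubated 10 min at 22 °C with compound (11 concentrations, 0.1 nM–20 μM, duplicates), then biotinylated Bad BH3 peptide (1 nM) added with anti-His-Eu cryptate/streptavidin-XL665. Incubation 1 h at 22 °C then overnight at 4 °C; TR-FRET 665/620 ratio, IC50 from 4-parameter fit.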

SUDHL5 cells = test: Induction of cytotoxicity in SUDHL5 cells (Assay 6); type: cell-based; conditions: 5 h, CellTiter-Glo, read-out: Cytotox SUDHL5 IC50 (median)
Outline: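 SUDHL5 and SUDHL10 cells plated and held overnight at 37° C, then incubated 5 h at 37° C with compound. Viability measured by CellTiter-Glo luminescence after 15 min shaking at room temperature. Cell-free medium wells served as control.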

Sequence of BCL-XL (Q07817 1-212): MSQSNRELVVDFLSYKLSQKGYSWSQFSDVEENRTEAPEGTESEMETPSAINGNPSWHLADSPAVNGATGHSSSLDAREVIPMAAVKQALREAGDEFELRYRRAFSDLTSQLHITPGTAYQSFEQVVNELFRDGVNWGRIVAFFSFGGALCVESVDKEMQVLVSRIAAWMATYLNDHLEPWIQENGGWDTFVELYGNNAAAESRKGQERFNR

SMILES	IC50 (BCL-XL) [µM]	IC50 (SUDHL5 cells) [µM]	IC50 (SUDHL5 cells; Homo sapiens, SU-DHL-5, 5 h) [µM]
Cc1c2c(nn1C)C(CCO)OCCCCn1c(C(=O)O)c(CCCOc3cccc4ccccc34)c3ccc(Cl)c-2c31 (single isomer, unassigned; enantiomer 1) [Example 31, (+)-4-chloro-15-(2-hydroxyethyl)-2,3-dimethyl-7-{3-[(naphthalen-1-yl)oxy]propyl}-2,10,11,12,13,15-hexahydropyrazolo[4′,3′:9,10][1,6]oxazacycloundecino[8,7,6-hi]indole-8-carboxylic Acid (Enantiomer 1)]	> 20	0.37	–
Cc1c2c(nn1C)C(CCN1CCOCC1)OCCCCn1c(C(=O)O)c(CCCOc3cccc4cc(F)ccc34)c3ccc(F)c-2c31 (single isomer, unassigned; enantiomer 2) [Example 21, 4-fluoro-7-{3-[(6-fluoronaphthalen-1-yl)oxy]propyl}-2,3-dimethyl-15-[2-(morpholin-4-yl)ethyl]-2,10,11,12,13,15-hexahydropyrazolo[4′,3′:9,10][1,6]oxazacycloundecino[8,7,6-hi]indole-8-carboxylic Acid (Enantiomer 2)]	> 20	–	12
CCc1c2c(nn1C)C(CCN1CCC(F)(F)C1)OCCCCn1c(C(=O)O)c(CCCOc3cccc4cc(F)ccc34)c3ccc(Cl)c-2c31 (single isomer, unassigned; enantiomer 2) [Example 57, 4-chloro-15-[2-(3,3-difluoropyrrolidin-1-yl)ethyl]-3-ethyl-7-{3-[(6-fluoronaphthalen-1-yl)oxy]propyl}-2-methyl-2,10,11,12,13,15-hexahydropyrazolo[4′,3′:9,10][1,6]oxazacycloundecino[8,7,6-hi]indole-8-carboxylic Acid N-ethylethanamine Salt (Enantiomer 2)]	> 20	6.8	–
CCc1c2c(nn1C)C(CCOC)OCCCCn1c(C(=O)O)c(CCCOc3cccc4cc(F)ccc34)c3ccc(Cl)c-2c31 (single isomer, unassigned; enantiomer 1) [Example 42, (+)-4-chloro-3-ethyl-7-{3-[(6-fluoronaphthalen-1-yl)oxy]propyl}-15-(2-methoxyethyl)-2-methyl-2,10,11,12,13,15-hexahydropyrazolo[4′,3′:9,10][1,6]oxazacycloundecino[8,7,6-hi]indole-8-carboxylic Acid—N-ethylethanamine Salt (Enantiomer 1)]	15	0.055	–
Cc1c2c(nn1C)C(CCN1CCOCC1)OCCCCn1c(C(=O)O)c(CCCOc3cccc4ccccc34)c3ccc(Cl)c-2c31 (racemic) [Example 13, (rac)-4-chloro-2,3-dimethyl-15-[2-(morpholin-4-yl)ethyl]-7-{3-[(naphthalen-1-yl)oxy]propyl}-2,10,11,12,13,15-hexahydropyrazolo[4′,3′:9,10][1,6]oxazacycloundecino[8,7,6-hi]indole-8-carboxylic Acid]	> 20	–	0.089
Cc1c2c(nn1C)C(CCN1CCOCC1)OCCCCn1c(C(=O)O)c(CCCOc3cccc4cc(F)ccc34)c3ccc(Cl)c-2c31 (racemic) [Example 16, (rac)-4-chloro-7-{3-[(6-fluoronaphthalen-1-yl)oxy]propyl}-2,3-dimethyl-15-[2-(morpholin-4-yl)ethyl]-2,10,11,12,13,15-hexahydropyrazolo[4′,3′:9,10][1,6]oxazacycloundecino[8,7,6-hi]indole-8-carboxylic Acid]	> 20	–	0.019
CCC1OCCCCn2c(C(=O)O)c(CCCOc3cccc4ccccc34)c3ccc(Cl)c(c32)-c2c1nn(C)c2C (racemic) [Example 25, (rac)-4-chloro-15-ethyl-2,3-dimethyl-7-{3-[(naphthalen-1-yl)oxy]propyl}-2,10,11,12,13,15-hexahydropyrazolo[4′,3′:9,10][1,6]oxazacycloundecino[8,7,6-hi]indole-8-carboxylic Acid]	> 20	–	2.8

More lines, main results first:

IC50 (BCL-XL) [µM]	SMILES	IC50 (SUDHL5 cells) [µM]	IC50 (SUDHL5 cells; Homo sapiens, SU-DHL-5, 5 h) [µM]
18.1	CCc1c2c(nn1C)C(C1CC1)OCCCCn1c(C(=O)O)c(CCCOc3cccc4cc(F)ccc34)c3ccc(Cl)c-2c31 (single isomer, unassigned; enantiomer 1) [Example 39, (+)-4-chloro-15-cyclopropyl-3-ethyl-7-{3-[(6-fluoronaphthalen-1-yl)oxy]propyl}-2-methyl-2,10,11,12,13,15-hexahydropyrazolo[4′,3′:9,10][1,6]oxazacycloundecino[8,7,6-hi]indole-8-carboxylic Acid—N-ethylethanamine Salt (Enantiomer 1)]	1	–
17.1	COCCC1OCCCCn2c(C(=O)O)c(CCCOc3cccc4ccccc34)c3ccc(Cl)c(c32)-c2c1nn(C)c2C (racemic) [Example 37, (rac)-4-chloro-(15-rac)-(2-methoxyethyl)-2,3-dimethyl-7-{3-[(naphthalen-1-yl)oxy]propyl}-2,10,11,12,13,15-hexahydropyrazolo[4′,3′:9,10][1,6]oxazacycloundecino[8,7,6-hi]indole-8-carboxylic Acid]	–	0.39
11	CCc1c2c(nn1C)C(CC(C)(C)O)OCCCCn1c(C(=O)O)c(CCCOc3cccc4cc(F)ccc34)c3ccc(Cl)c-2c31 (single isomer, unassigned; enantiomer 1) [Example 53, (+)-4-chloro-3-ethyl-7-{3-[(6-fluoronaphthalen-1-yl)oxy]propyl}-15-(2-hydroxy-2-methylpropyl)-2-methyl-2,10,11,12,13,15-hexahydropyrazolo[4′,3′:9,10][1,6]oxazacycloundecino[8,7,6-hi]indole-8-carboxylic Acid—N-ethylethanamine Salt (Enantiomer 1)]	0.095	–
> 20	CCc1c2c(nn1C)C(c1ccccc1)OCCCCn1c(C(=O)O)c(CCCOc3cccc4cc(F)ccc34)c3ccc(Cl)c-2c31 (racemic) [Example 59, (rac)-4-chloro-3-ethyl-7-{3-[(6-fluoronaphthalen-1-yl)oxy]propyl}-2-methyl-(15-rac)-phenyl-2,10,11,12,13,15-hexahydropyrazolo[4′,3′:9,10][1,6]oxazacycloundecino[8,7,6-hi]indole-8-carboxylic Acid]	–	0.64
> 20	CCc1c2c(nn1C)C(CCO)OCCCCn1c(C(=O)O)c(CCCOc3cccc4cc(F)ccc34)c3ccc(Cl)c-2c31 (single isomer, unassigned; enantiomer 2) [Example 46, (−)-4-chloro-3-ethyl-7-{3-[(6-fluoronaphthalen-1-yl)oxy]propyl}-15-(2-hydroxyethyl)-2-methyl-2,10,11,12,13,15-hexahydropyrazolo[4′,3′:9,10][1,6]oxazacycloundecino[8,7,6-hi]indole-8-carboxylic Acid (Enantiomer 2)]	4.3	–
> 20	CCc1c2c(nn1C)C(CCCN1CCOCC1)OCCCCn1c(C(=O)O)c(CCCOc3cccc4cc(F)ccc34)c3ccc(Cl)c-2c31 (racemic) [Example 65, (rac)-4-chloro-3-ethyl-7-{3-[(6-fluoronaphthalen-1-yl)oxy]propyl}-2-methyl-(15-rac)-[3-(morpholin-4-yl)propyl]-2,10,11,12,13,15-hexahydropyrazolo[4′,3′:9,10][1,6]oxazacycloundecino[8,7,6-hi]indole-8-carboxylic Acid]	–	0.078
